In brackets after ≈: the same amount, converted by molar mass. Where two headings read alike, the source gives them in different places.
Assays:
[1] = In vitro test of inhibition of the evolution of odors on natural sweat (olfactory evaluation by jury of experts); set-up: species or system human; details: for average % of reduction in the unpleasantness of the odor (T18 h, T24 h) / average % of reduction in the odor intensity (T18 h, T24 h): 37° C.; for average % of reduction in the unpleasantness of the odor (T18 h, T24 h): hedonistic grade relative to control sweat; for average % of reduction in the odor intensity (T18 h, T24 h): relative to control sweat without deodorant agent; for deodorant efficacy (reduction in the intensity and unpleasantness of the odor), in words: natural sweat, for at least 24 h
Procedure: A test of inhibition of the evolution of odors was carried out on natural sweat. This test is carried out by adding the deodorant agent to fresh sweat, and then in carrying out an olfactory evaluation by means of a jury of experts after incubation at 37° C. for 18 hours and 24 hours. Thus, underarm sweat was collected in a sauna from several human models and combined to form a sample of sweat. In order to obtain the characteristic nauseating odor of sweat, before introducing the active substance, this sample of sweat was incubated for 18 hours at a temperature of 37° C. […] The active substance was then introduced into each of the flasks to be tested.
1) After incubation for 18 hours, the odor of each flask was evaluated.
The odor was evaluated on the basis of 2 criteria:
(a)—overall intensity (grading from 0 to 4):
(b)—the hedonistic assessment (grading from 0 to 6):
2) The flasks were reincubated in an oven at 37° C. for 6 h, the total desired incubation time being 24 h. Evaluation of the odor of each flask was then repeated as before.

Aspergillus niger = assay: Microbiostatic activity (MIC) by dilutions in agar medium; assay type: cell-based
Procedure: (§1) Each of the 3 compounds was presented in the form of an ethanolic solution. 100 μl of the ethanolic solution were added to 1.9 ml of agar culture heated beyond the melting point to 45° C. (medium chosen as a function of the nutrient requirements of the test strain). After stirring with a Vortex machine, successive dilutions, in geometrical progression by a factor of 2, of the solution obtained were carried out using agar culture medium heated beyond its melting point to 45° C. 1 ml of each dilution was introduced into the wells of a microplate (flask, 24 wells). Four μl of microbial suspension were placed at the surface of the agar medium. Two control wells were also prepared: 100 μl H2O+1.9 ml of culture medium (growth control), […] ethanol+1.9 ml of culture medium (control of non-toxicity of the ethanol diluted to 1/20).
(§2) After incubation under conditions (temperature, atmosphere and duration) dependent on the test strain, the minimum inhibitory concentration (MIC) was given by the lowest concentration of product which inhibited the microbial growth. The results, shown below, are expressed in μg/ml.
(§3) For the control cupules (H2O or ethanol), the observation of microbial growth made it possible to exclude the presence of a placebo effect.

Staphylococcus aureus = assay: as above; assay type: cell-based
Procedure: as §1, §2, §3

Propionibacterium acnes = assay: as above; assay type: cell-based; details: Cutibacterium acnes
Procedure: as §1, §2, §3

Pityrosporum ovale = assay: as above; assay type: cell-based; details: Malassezia furfur
Procedure: as §1, §2, §3

Staphylococcus epidermis = assay: as above; assay type: cell-based
Procedure: as §1, §2, §3

Corynebacterium xerosis = assay: as above; assay type: cell-based; details: for MIC: Corynebacterium xerosis
Procedure: as §1, §2, §3

[2] = cited from earlier work
[3] = Propionibacterium acnes, agar dilution, read-out: MIC
[4] = Pityrosporum ovale, agar dilution, read-out: MIC
[5] = Staphylococcus epidermis, agar dilution, read-out: MIC

SMILES | average % of reduction in the unpleasantness of the odor (T18 h, T24 h) ([1]; 1 mg/ml of sweat) | average % of reduction in the odor intensity (T18 h, T24 h) ([1]; 1 mg/ml of sweat) | average % of reduction in the unpleasantness of the odor (T18 h, T24 h) ([1]; 2 mg/ml of sweat) | average % of reduction in the odor intensity (T18 h, T24 h) ([1]; 2 mg/ml of sweat) | deodorant efficacy (reduction in the intensity and unpleasantness of the odor), in words [1] | MIC (Aspergillus niger; agar dilution, read-out: MIC) | MIC (Staphylococcus aureus; agar dilution, read-out: MIC) | MIC (Propionibacterium acnes; [3]) | MIC (Pityrosporum ovale; [4]) | MIC (Staphylococcus epidermis; [5]) | MIC (Corynebacterium xerosis; agar dilution, read-out: MIC) | selectivity of bactericidal activity, in words (Corynebacterium xerosis; less active than Resveratrol on all strains except Corynebacterium xerosis) | solubility in water, in words [2] | MIC (Aspergillus niger) | MIC (Staphylococcus aureus) | MIC (Propionibacterium acnes) | MIC (Pityrosporum ovale) | MIC (Staphylococcus epidermis; Staphylococcus) | MIC (Corynebacterium xerosis)
Oc1cc(O)cc(C=Cc2ccccc2)c1 [Pinosylvine, 3,5-dihydroxystilbene] | −33% | −77% | −40% | −89% | very large reduction | 400 µg/mL (≈ 1880 µM) | 200 µg/mL (≈ 942 µM) | 200 µg/mL (≈ 942 µM) | > 400 µg/mL | 400 µg/mL (≈ 1880 µM) | 6 µg/mL (≈ 28.3 µM) | exerted selectively | – | – | – | – | – | – | –
Oc1cc(Cl)ccc1Oc1ccc(Cl)cc1Cl [Triclosan, 2,4,4′-trichloro-2′-hydroxydiphenyl ether] | −26% | −64% | −26% | −64% | – | – | – | – | – | – | – | – | insoluble | 18.1 µg/mL (≈ 62.5 µM) | 0.1 µg/mL (≈ 0.345 µM) | 2.3 µg/mL (≈ 7.94 µM) | > 144 µg/mL | 2.3 µg/mL (≈ 7.94 µM) | 2.3 µg/mL (≈ 7.94 µM)
Oc1ccc(/C=C/c2cc(O)cc(O)c2)cc1 [Resveratrol, 3,5,4′-stilbene] | – | – | – | – | – | > 115 µg/mL | 72 µg/mL (≈ 315 µM) | 29 µg/mL (≈ 127 µM) | > 115 µg/mL | 72 µg/mL (≈ 315 µM) | 14 µg/mL (≈ 61.3 µM) | – | – | – | – | – | – | – | –
Oc1ccc(C=Cc2ccccc2)cc1 [4-Hydroxystilbene, 4-hydroxystilbene] | −3% | −18% | −10% | −21% | highly insufficient efficacy | – | – | – | – | – | – | – | – | – | – | – | – | – | –
